Values quoted from earlier work as cited in patent US20140356424A1, “COMPOSITION FOR TREATMENT OR REDUCTION OF SYMPTOMS RELATED TO PREMENSTRUAL SYNDROME (PMS), PREMENSTRUAL DISPHORIC DISORDER (PMDD), PREMENOPAUSE, MENOPAUSE OR FEMALE HORMONAL DISORDERS, IN A PHARMACEUTICAL COMPOSITION CONTAINING SAID FORM, AND PROCESS FOR PRODUCING SAID PHARMACEUTICAL FORM AND USE …” (EMS S.A., priority 2013, published 2014).

Key:
[1] = system: women with a diagnosis of PMS; conditions: calcium carbonate 1.0 g/day, after three months
premenstrual symptoms = conditions: daily supplement of 200 mg of magnesium (as MgO)

SMILES	complaints of headache, anxiety, agitation and irritability [1]	symptom of fatigue (questionnaire) ([1]; placebo 52.3%) [%]	symptom of changes in appetite (questionnaire) ([1]; placebo 75%) [%]	effect on severity of premenstrual symptoms (premenstrual symptoms)
O=C([O-])[O-].[Ca+2] [calcium carbonate]	significant changes were not observed	36	52.7	–
[O]=[Mg] [magnesium (as MgO), magnesium oxide]	–	–	–	reduced mild premenstrual symptoms
